{"source": "patent EP2891491A1", "about": "“Use of (r)-phenylpiracetam for the treatment of sleep disorders” (Merz Pharma GmbH & Co. KGaA, priority 2014, dated 2015)", "key": {"[1]": {"assay": "brain microdialysis: concentration of (R)-phenylpiracetam in the brain after i.p. application", "type": "in vivo, rats", "details": "rat", "experimental": "EXAMPLE 3: Assessment of the concentration of (R)-phenylpiracetam in the brain using brain microdialysis - Figs. 2, 14, 15\nNaive adult male Sprague-Dawley rats (240-360 g, Janvier, France) were used for the study kept under standard conditions. All experiments were conducted during the light period of the day-night cycle.\nSiliconized guide cannula (MAB 6.14.IC) (MAB, Stockhom, Sweden) were implanted unilaterally in pentobarbital anaesthetized animals aiming at the caudatus putamen (CPu; AP: +0.1, LM: ± 2.6, DV: -3.2 mm relative to bregma; -3.3 mm interaural) according to the atlas of Paxinos and Watson (loc. cit.). Rats were given at least 3 days to recover from surgery before starting microdialysis experiments.\nMicrodialysis experiments were performed in the home cage of the animal. A microdialysis probe (MAB 6.14.4.; 4 mm exposed membrane length, polyethersulfone (PES) membrane; MAB, Stockholm, Sweden) was lowered through the guide cannula into the CPu (ventral position of probe tip with reference to the skull: -7.2 mm) ca. 12 hours before the sampling and left in place for the whole testing period.\nThe probes were perfused with aCSF at a flow rate of 2 µl/min using a CMA 102 perfusion pump (CMA, Solna, Sweden). The composition of the aCSF was 147 mM Na^+, 2.7 mM K^+, 1.2 mM Ca^2+, 0.85 mM Mg^2+, 0.04 mM ascorbic acid. […]"}, "rats": {"tested_on": "rats", "assay": "electroencephalography (EEG) screen in freely moving rats", "type": "in vivo", "experimental": "EXAMPLE 5: Testing of (R)-phenylpiracetam in an electroencephaloaraphy (EEG) screen - Fig. 4\n(R)-Phenylpiracetam was tested at four different concentrations (1 mg/kg, 12.5 mg/kg, 25 mg/kg, and 50 mg/kg) in an EEG screen as described by Dimpfel (Dimpfel, Neuropsychobiology, 58 (2008)178-86).\nEight adult Fisher 344 rats (8 months of age, kept on inverse light-dark cycle, weight about 400 g, provided by Charles River Laboratories, D-97633, Sulzfeld) were used in this experimental series. Animals were implanted with electrodes into the brain and were given two weeks for recovery from surgery. After this the transmitter was plugged in for adaptation and control experiments.\nThe animals were allowed to acclimatize for at least 4 weeks before the study started. There was automatic control of light cycle, temperature and humidity. Light hours were 18 h in the evening - 6 h in the morning. […] Cages, bedding, and water bottles were changed at regular intervals, i.e. every 2-3 days. Standard diet (Nohrlin H10, Altromin, D-32791 Lage, Germany) was available to the animals ad libitum. The animals had access to domestic quality mains water ad libitum.\nRats were implanted with 4 bipolar concentric steel electrodes within a stereotactic surgical procedure during anaesthesia with ketamine. All four electrodes were placed 3 mm lateral within the left hemisphere. Dorsoventral coordinates were 4, 6, 4.2 and 8 mm and anterior coordinates were 3.7, 9.7, 5.7 and 12.2 mm for frontal cortex, striatum, hippocampus, and reticular formation, respectively (according to the atlas of Paxinos and Watson, 1982). A pre-constructed base plate carrying 4 bipolar stainless steel semi-micro electrodes (neurological electrodes \"SNF 100\" from Rhodes Medical Instruments, Inc., Summerland, CA 93067, USA) and a 5-pin-plug was fixed to the skull by dental cement interacting with 3 steel screws placed on distance into the bone. The distant recording spot of the electrode was the active electrode whereas the proximal spots of the four electrodes were connected to each other to give a reference. The base plate was carrying a plug to receive later on the transmitter (weight: 5.2 g including battery, 26 mm x 12 mm x 6 mm of size).\nEEG signals were recorded from frontal cortex, hippocampus, striatum and reticular formation of freely moving rats from inside a totally copper shielded room. Signals were wirelessly transmitted by a radio-telemetric system (Rhema Labortechnik, Hofheim, Germany, using 40 MHz as carrier frequency) and were amplified and processed as described earlier to give power spectra of 0.25 Hz resolution (Dimpfel et al. 1986; Dimpfel et al. 1988; Dimpfel et al. 1989; Dimpfel, 2003). […]"}}}
{"smiles": "NC(=O)CN1C[C@@H](c2ccccc2)CC1=O", "note": "[(R)-phenylpiracetam]", "values": [{"measurement": "free concentration in extracellular fluid in the brain", "setting": "[1]; 50 mg/kg", "result": 20, "unit": "µM"}, {"measurement": "free concentration in extracellular fluid in the brain", "setting": "[1]; 100 mg/kg", "result": 50, "unit": "µM"}, {"measurement": "theta, delta, alpha1 and beta2 waves in the reticular formation", "setting": "rats; EEG pattern compared with nootropics", "result": "no change"}, {"measurement": "alpha2 and beta1 waves", "setting": "rats; i.p., 1, 12.5, 25 and 50 mg/kg", "result": "dose dependent attenuation"}, {"measurement": "theta power within the frontal cortex", "setting": "rats; i.p., highest dosage", "result": "increases"}, {"measurement": "Motility", "setting": "rats; i.p., video tracking during EEG", "result": "increased"}]}
